Laboratory results: patent US7049331B2, “1,2,4-thiadiazole derivatives as melanocortin receptor modulators” (Ortho-McNeil Pharmaceutical, Inc., priority 2001, dated 2006)

Legend:
[1] = test system: Hippocampal Cells; assay: Neurite Cell Outgrowth Assay, hippocampal cells; format: cell-based; conditions: Rattus norvegicus; 50 nM; percent change over the vehicle response; NA = no change/not active
Summary of the method: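 Rat E18 hippocampal or cortical neurons plated at 30,000 cells/well, treated 24 h after plating with compound at 50 nM, refreshed on day 3. At one week, fixed and MAP-2 immunostained with FITC secondary, read by fluorescence; outgrowth given as percent change versus vehicle.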

[2] = test system: human skin transplanted to the SCID mouse; assay: Sebum production: Human Skin-SCID Mouse Chimera Model; format: in vivo; conditions: for % Inh Squalene (Human Sebaceous Lipids) / % Inh Triglycerides (Human Sebaceous Lipids) / % Inh W/E (Human Sebaceous Lipids): 11 Day Treatment; for % Inh Cholesterol Ester, Lipid Accumulation / % Inh Cholesterol, Lipid Accumulation / % Inh Cholesterol, Sebaceous Lipid Synthesis / % Inh Squaline, Lipid Accumulation / % Inh Squaline, Sebaceous Lipid Synthesis / % Inh Triglycerides, Lipid Accumulation / % Inh Triglycerides, Sebaceous Lipid Synthesis / % Inh Wax Esters, Lipid Accumulation / % Inh Wax Esters, Sebaceous Lipid Synthesis: 30 Day Treatment
Description: C.B-17 scid/scid mice (Taconic, Germantown, N.Y.) were used for grafting at 5–6 weeks of age. Full thickness human facial skin was shaved to ˜0.4 mm using a Forman Dermatome. The skin shavings were washed 3 times in antibiotics and antimycotics (penicillin, streptomycin, fungizone) (Life technologies) in Dulbecco's Modified Eagle Medium (DMEM, Life Technologies). Eliptical skin ˜2.0–2.5×1.0–1.5 was grafted onto the prepared graft bed and sutured using 4.0 silk. During surgical procedures the mice were anaesthetized using a mixture of Ketaset (0.16 mg/g body weight) and Rompun (8.0 μg/g body weight).
It is well accepted that the wound healing process of the transplanted skin in the SCID mouse takes one month, at which time the human skin can be used for experimental purposes. […] Maximum size of the glands was observed 3 month post transplantation. The glands retained their capability to produce human specific sebum and the glandular tissue expressed human specific markers including MC5-R. Since glands reached their maximum size at 2–3 month post transplantation the effects of inhibitors of sebum secretion was tested at this point.
Mice at 2–3 month post transplantation with human facial skin were used for the studies. The graft area was treated with the test compound at the desired concentration(s) dissolved in polyethylene glycol-ethanol (20 μl/2 cm^2). Controls were treated with vehicle alone. The test compounds were applied daily, excluding weekends. Sebum secretion was determined using Sebutape at 15 days and 30 days following treatment.
The termination of the experiment was determined by preliminary clinical evaluation of sebum production using SEBUTAPE. At this time human skin grafts were excised and representative samples were collected for histological evaluation. More particularly, 2 mm punch biopsies were prepared and used for evaluation of lipid synthesis and total lipid accumulation in the treated tissues.
The collected—2 mm punch biopsies were placed individually into 96 well plates in Krebs buffer and labeled with 10 μCi of ^14C acetate for 3 hours. Following this labeling period the samples were washed in medium and 5 biopsies pooled, weighed, and used for lipid extraction. The lipid extraction and analysis by HPTLC was the same as described for tissue culture derived cells. […]

[3] = molecular target: T1, melanocortin MC-4 receptor (Homo sapiens, UniProt P32245); assay: MC-4 receptor binding (Filtration); conditions: cell prints its own unit nm in the Filtration (μM) column; read-out: IC50 MC-4 (Filtration)
T1 construct: purchased Receptor Biology Inc
T1 sequence (P32245 whole entry): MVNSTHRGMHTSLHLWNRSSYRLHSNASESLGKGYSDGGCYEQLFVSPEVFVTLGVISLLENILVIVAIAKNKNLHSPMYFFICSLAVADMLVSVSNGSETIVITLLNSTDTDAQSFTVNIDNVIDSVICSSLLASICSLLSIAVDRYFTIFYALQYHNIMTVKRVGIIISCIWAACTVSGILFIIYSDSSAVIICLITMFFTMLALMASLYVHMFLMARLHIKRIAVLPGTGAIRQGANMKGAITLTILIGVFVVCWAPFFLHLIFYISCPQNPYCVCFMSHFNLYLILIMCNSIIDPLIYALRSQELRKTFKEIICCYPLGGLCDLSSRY
Description: The procedures described above for the melanocortin MC-4 receptor were repeated for the melanocortin MC-3 receptor. Following the procedures described, representative compounds of the present invention were tested for binding in the MC-4 and/or MC-3 assay, as listed in Table 4.

[4] = 30 days of topical treatment with 0.05% and 0.01% solution

Work on `COc1ccc(N(C)c2nc(-c3ccccc3)[n+](-c3ccc(C)cc3)s2)cc1` [Compound 50] yielded an activation at 0.05 µM [1] of 46%.

For `COc1ccccc1-c1nc(Nc2ccccc2)s[n+]1-c1ccccc1OC.[Br-]` [Compound 74, 2-(2-methoxyphenyl)-3-(2-methoxyphenyl)-5-phenylamino-[1,2.4]thiadiazol-2-ium], the “% Inh Squalene (Human Sebaceous Lipids)” value ([2]; 0.01% topical) was 0%, the “% Inh Triglycerides (Human Sebaceous Lipids)” value ([2]; 0.01% topical) was 0% and the “% Inh W/E (Human Sebaceous Lipids)” value ([2]; 0.01% topical) was 25%. The “% Inh Cholesterol Ester, Lipid Accumulation” value ([2]; 0.01% topical) was 44%, the “% Inh Cholesterol, Lipid Accumulation” value ([2]; 0.01% topical) was 33% and the “% Inh Cholesterol, Sebaceous Lipid Synthesis” value ([2]; 0.01% topical) was 33%. For the same compound, the “% Inh Squaline, Lipid Accumulation” value ([2]; 0.01% topical) was 82%, the “% Inh Squaline, Sebaceous Lipid Synthesis” value ([2]; 0.01% topical) was 80% and the “% Inh Triglycerides, Lipid Accumulation” value ([2]; 0.01% topical) was 75%. The “% Inh Triglycerides, Sebaceous Lipid Synthesis” value ([2]; 0.01% topical) was 75%, the “% Inh Wax Esters, Lipid Accumulation” value ([2]; 0.01% topical) was 86% and the “% Inh Wax Esters, Sebaceous Lipid Synthesis” value ([2]; 0.01% topical) was 86%. For the same compound, the “% Inh Cholesterol Ester, Lipid Accumulation” value ([2]; 0.05% topical) was 21%, the “% Inh Cholesterol, Lipid Accumulation” value ([2]; 0.05% topical) was 82% and the “% Inh Cholesterol, Sebaceous Lipid Synthesis” value ([2]; 0.05% topical) was 82%. The “% Inh Squaline, Lipid Accumulation” value ([2]; 0.05% topical) was 73%, the “% Inh Squaline, Sebaceous Lipid Synthesis” value ([2]; 0.05% topical) was 90% and the “% Inh Triglycerides, Lipid Accumulation” value ([2]; 0.05% topical) was 90%. For the same compound, the “% Inh Triglycerides, Sebaceous Lipid Synthesis” value ([2]; 0.05% topical) was 90%, the “% Inh Wax Esters, Lipid Accumulation” value ([2]; 0.05% topical) was 93% and the “% Inh Wax Esters, Sebaceous Lipid Synthesis” value ([2]; 0.05% topical) was 93%. For the same compound, the “% Inh Squalene (Human Sebaceous Lipids)” value ([2]; 0.1% topical) was 70%, the “% Inh Triglycerides (Human Sebaceous Lipids)” value ([2]; 0.1% topical) was 50% and the “% Inh W/E (Human Sebaceous Lipids)” value ([2]; 0.1% topical) was 80%. For the same compound, the “% Inh Squalene (Human Sebaceous Lipids)” value ([2]; 0.5% topical) was 0%, the “% Inh Triglycerides (Human Sebaceous Lipids)” value ([2]; 0.5% topical) was 0% and the “% Inh W/E (Human Sebaceous Lipids)” value ([2]; 0.5% topical) was 10%. The “de novo synthesis of sebaceous lipids” value [2, 4] was “significantly decreased”, the “total sebaceous lipid accumulation” value [2, 4] was “significantly decreased” and the “down regulation of sebaceous lipids” value ([2]; topical treatment for 15 days with 0.05% and 0.005% solutions) was “not sufficient to down regulate the lipids”. For the same compound, the “Visual evaluation of the sebaceous gland” value ([2]; topical treatment with 0.1% solution) was “visible shrinkage of the sebaceous gland and down regulation of sebaceous lipids”.

`c1ccc(CNc2nc(-c3ccccc3)[n+](-c3ccccc3)s2)cc1` [Compound 84] showed an IC50 [3] of 0.082 µM.
